Test results: patent US20110020312A1, “METHODS FOR TREATMENT OF METABOLIC DISORDERS USING EPIMETABOLIC SHIFTERS, MULTIDIMENSIONAL INTRACELLULAR MOLECULES, OR ENVIRONMENTAL INFLUENCERS” (priority 2009, published 2011)

Assays:
SCC cells = assay: Real-time PCR Diabetes Array; format: cell-based; details: 100 μM
Excerpt: The control cells were untreated cells.

HepG2 liver cancer cells = assay: ApoStrand ELISA apoptosis assay (single-stranded DNA); format: cell-based
Excerpt: The ApoStrand™ ELISA is based on the sensitivity of DNA in apoptotic cells to formamide denaturation and the detection of the denatured DNA with a monoclonal antibody to single-stranded DNA (ssDNA).

SK-MEL-28 mitochondria = assay: LC-MS/MS quantification of Q10, Q10H2 and Q9 in mitochondrial enriched samples; format: cell-based; details: for Q10 in mitochondrial enriched sample: 100 μM Q10 in the media; for increase in mitochondrial Q10 levels: 100 μM Q10
Description: To control for sample variance in total material, the levels of cholesterol was also measured to confirm that the differences were not due to sample size errors.

Hif1 alpha = assay: Western blot, Hif1 alpha levels; format: cell-based, human; details: for Hif1 alpha Lower Band Normalized Volume: HASMC
Description: The Actin blots were stripped by incubating for 30 minutes with methanol, followed by two 10 minute washes with TBS-T, then 30 minutes of incubation with Stripping buffer at 50 deg C., and followed by two washes with 100 ml or more of TBS-T for 30′ each. The blots were scanned in laser scanner to check for complete stripping. The blots were activated with methanol for 5 seconds, washed with water for 5 minutes, and TBST for 15 minutes. The blots were blocked for 1 hour with 5% blocking reagent in TBS-T at room temperature and then washed 3 times with TBS-T (1×-15′; 2×5′ each) and probed with the primary antibody for Hif 1 alpha, Caspase 3 or PDHB in 5% BSA (at 1:200 by incubation overnight at 4 deg C. with gentle shaking. The primary antibody for Hif 1 alpha (Abcam ab2185; antirabbit) was at 1:500 dilution in 5% BSA. The primary antibody for Caspase 3 (Santacruz sc7272; antirabbit) was at 1:200 dilution in 5% BSA. The primary antibody for Pyruvate Dehydrogenase beta (PDHB) (Novus Biologicals H00005162-M03; antimouse) was at 1:500 dilution in 5% BSA. After incubation with primary antibodies, the membranes were washed 3 times with TBS-T (1×-15′; 2×5′ each) and probed with the secondary antibody (PDHB antimouse; Hif 1a and Caspase 3 antirabbit; 1:10,000 dilution) for 1 h at room temperature. After 1 h of incubation with secondary antibodies, the blots were washed 3 times with TBS-T (1×-15′; 2×5′ each) and then incubated with ECF reagent for 5 minutes and then each blot scanned with 5100 Fuji Laser scanner at 25 uM resolution, 16 bit, green laser, at 400V and at 500 V.
The above blots were stripped by incubating for 30 minutes with methanol, followed by two 10 minute washes with TBS-T, then 30 minutes of incubation with Stripping buffer at 50 deg C., and followed by two washes with 100 ml or more of TBS-T for 30′ each. The blots were activated with methanol for 5 seconds, washed with water for 5 minutes, and TBST for 15 minutes. The blots are blocked for 1 hour with 5% blocking reagent in TBS-T at room temperature and then washed 3 times with TBS-T (1×-15′; 2×5′ each) and probed with the primary antibody for Transaldolase or Hifla in 5% BSA by incubation overnight at 4 deg C. with gentle shaking. The primary antibody for Transaldolase (Abcam ab67467; antimouse) was at 1:500 dilution. The primary antibody for Hifla (Abcam ab2185; antirabbit) was at 1:500 dilution. After incubation with primary antibodies, the membranes were washed 3 times with TBS-T (1×-15′; 2×5′ each) and probed with the secondary antibody (antimouse or antirabbit; 1:10,000 dilution) for 1 h on the orbital tilting shaker at room temperature. After 1 h of incubation with secondary antibodies, the blots were washed 3 times with TBS-T (1×-15′; 2×5′ each) and then incubated with ECF reagent for 5 minutes and then each blot scanned with 5100 Fuji Laser scanner at 25 uM resolution, 16 bit, green laser, at 400 & 500V.

a variety of cell types = assay: Western blot analysis (Bcl-xL, Vimentin, oxidative phosphorylation and mitochondrial membrane proteins); format: cell-based; details: 50 or 100 μM Q10
Description: Approximately 50 μg of protein were assayed per sample by immunoblotting. All treatments were run in triplicate with controls. […] The primary antibodies were incubated overnight at 4 degrees C. in a 5% BSA and TBST solution. Secondary antibodies were incubated for one hour at 4 degrees. All antibodies were purchased from Cell Signaling Technology. Antibodies were used at a ratio of 1:1000, with the exception of PActin at a ratio of 1:5000. Blots were developed and results were quantified using the NIH Java based densitometer analysis software Image J. All blots were also probed for and normalized to their respective PActin expression.
The first experiment processed and evaluated by Western blot and 2-D gel electrophoresis was carried out on the skin cancer cell line SKMEL-28.
A variety of cell types were evaluated by Western blot analysis against an antibody for Bcl-xL (FIG. 14), an antibody for Vimentin (FIG. 15), a series of antibodies for mitochondrial oxidative phosphorylation function (FIGS. 16-21) and against a series of antibodies related to mitochondrial membrane integrity (FIGS. 22-27).

[1] = test system: HAEC, MCF-7, HepG2 and PC-3 cell lines; assay: OCR and ECAR in other normal and cancer cell lines (data not shown); format: cell-based; details: absence and/or presence of stressors (hyperglycemia, hypoxia, lactic acid)
Description: A similar comparison of OCR and ECAR values (data not shown) were determined in numerous other normal and cancer cells lines, including: HAEC (normal human aortic endothelial cells), MCF-7 (breast cancer), HepG2 (liver cancer) and highly metastatic PC-3 (prostate cancer) cell lines. […] Thus, the overall effect of CoQ10 in the treatment of cancer, including cell death, is an downstream effect of its collective influence on proteomic, genomic, metabolomic outcomes in concert with shifting of the cellular bioenergetics from glycolysis to mitochondrial OXPHOS.

## COC1=C(OC)C(=O)C(C/C=C(\C)CC/C=C(\C)CC/C=C(\C)CC/C=C(\C)CC/C=C(\C)CC/C=C(\C)CC/C=C(\C)CC/C=C(\C)CC/C=C(\C)CCC=C(C)C)=C(C)C1=O [Q10, Coenzyme Q10]
SCC cells; at 6 and 24 hours
  TNFRSF1A gene Regulation: Down regulated
SCC cells; at 6 hours
  G6PD gene Regulation: Down regulated
  ICAM1 gene Regulation: Down regulated
  INPPL1 gene Regulation: Down regulated
  NOS3 gene Regulation: Down regulated
  PIK3CD gene Regulation: Down regulated
  PPARA gene Regulation: Down regulated
  PYGL gene Regulation: Down regulated
  SREBF1 gene Regulation: Down regulated
  STXBP2 gene Regulation: Down regulated
  TNF gene Regulation: Down regulated
  VEGFA gene Regulation: Down regulated
HepG2 liver cancer cells; 50 μM Q10
  detectable apoptosis (ApoStrand ELISA): 17%
HepG2 liver cancer cells; 100 μM Q10
  detectable apoptosis (ApoStrand ELISA): 32%
SK-MEL-28 mitochondria; 6 hr
  Q10 in mitochondrial enriched sample: 7.21 ng/Sample
SK-MEL-28 mitochondria; 19 hours
  increase in mitochondrial Q10 levels: ~3 fold
SK-MEL-28 mitochondria; 19 hr
  Q10 in mitochondrial enriched sample: 16.77 ng/Sample
SK-MEL-28 mitochondria; 48 hour
  increase in mitochondrial Q10 levels: ~6 fold
SK-MEL-28 mitochondria; 48 hr
  Q10 in mitochondrial enriched sample: 46.63 ng/Sample
SK-MEL-28 mitochondria; exogenous Q10 added to media
  form of Q10 in mitochondria: maintained in the supplied oxidized form
Hif1 alpha; 5g48-50
  Hif1 alpha Lower Band Normalized Volume: 21664
Hif1 alpha; 5g48-100
  Hif1 alpha Lower Band Normalized Volume: 19540
Hif1 alpha; 22G24-50
  Hif1 alpha Lower Band Normalized Volume: 18486
Hif1 alpha; 22G24-100
  Hif1 alpha Lower Band Normalized Volume: 17919
Hif1 alpha; 22G48-50
  Hif1 alpha Lower Band Normalized Volume: 17496
Hif1 alpha; 22G48-100
  Hif1 alpha Lower Band Normalized Volume: 23111
Hif1 alpha; HepG2, 5g24-50
  Hif1 alpha Upper Band Normalized Volume: 8998
Hif1 alpha; HepG2, 5g24-100
  Hif1 alpha Upper Band Normalized Volume: 9315
Hif1 alpha; HepG2, 5g48-50
  Hif1 alpha Upper Band Normalized Volume: 8601
Hif1 alpha; HepG2, 5g48-100
  Hif1 alpha Upper Band Normalized Volume: 10192
Hif1 alpha; HepG2, 22G24-50
  Hif1 alpha Upper Band Normalized Volume: 14089
Hif1 alpha; HepG2, 22G24-100
  Hif1 alpha Upper Band Normalized Volume: 8530
Hif1 alpha; HepG2, 22G48-50
  Hif1 alpha Upper Band Normalized Volume: 9416
Hif1 alpha; HepG2, 22G48-100
  Hif1 alpha Upper Band Normalized Volume: 5608
Hif1 alpha; mitochondrial preparations of cancer cells
  Hif1 alpha protein levels: decreased
Hif1 alpha; whole cell lysates of normal cells
  Hif1a lower band: decrease
A variety of cell types
  levels of examined proteins (Western blot): upregulated or downregulated
[1]
  OCR and ECAR values: shift in OCR and ECAR values representative of values observed in a normal cells
